According to US11639329B2, “Lipids for use in lipid nanoparticle formulations” (ACUITAS THERAPEUTICS, INC., priority 2017, dated 2023):

How the values were obtained:
[1] = Determination of pKa of formulated lipids (TNS fluorescence assay in lipid nanoparticles); format: physicochemical; conditions: probe TNS (2-(p-toluidino)-6-napthalene sulfonic acid); lipid formulated in LNP (compound/DSPC/cholesterol/PEG-lipid); pH giving half-maximal TNS fluorescence
Text: As described elsewhere, the pKa of formulated lipids is correlated with the effectiveness of LNPs for delivery of nucleic acids (see Jayaraman et al, Angewandte Chemie, International Edition (2012), 51(34), 8529-8533; Semple et al, Nature Biotechnology 28, 172-176 (2010)). In some embodiments, the preferred range of pKa is ˜5 to ˜7. […] Lipid nanoparticles comprising compound of structure (I)/DSPC/cholesterol/PEG-lipid (50/10/38.5/1.5 or 47.5:10:40.8:1.7 mol %) in PBS at a concentration of 0.4 mM total lipid were prepared using the in-line process as described in Example 1. TNS was prepared as a 100 μM stock solution in distilled water. Vesicles were diluted to 24 μM lipid in 2 mL of buffered solutions containing 10 mM HEPES, 10 mM MES, 10 mM ammonium acetate, and 130 mM NaCl, where the pH ranged from 2.5 to 11. An aliquot of the TNS solution was added to give a final concentration of 1 μM and following vortex mixing fluorescence intensity was measured at room temperature in a SLM Aminco Series 2 Luminescence Spectrophotometer using excitation and emission wavelengths of 321 nm and 445 nm. A sigmoidal best fit analysis was applied to the fluorescence data and the pKa was measured as the pH giving rise to half-maximal fluorescence intensity.

[2] = tested on: luciferase expression in the liver (FLuc mRNA); assay: Luciferase mRNA in vivo evaluation using lipid nanoparticle compositions; set-up: species or system mice (C57BL/6, CD-1); conditions: LNP with FLuc mRNA, tail vein injection, liver 4 hours after administration; for Liver Luc (ng luc/g liver), *dosed at 0.3 mg/kg: dosed at 0.3 mg/kg (footnote *); for Liver Luc @ 0.5 mg/kg (ng luc/g liver): 0.5 mg mRNA/kg
Method: A lipid of structure (I), DSPC, cholesterol and PEG-lipid were solubilized in ethanol at a molar ratio of 50:10:38.5:1.5 or 47.5:10:40.8:1.7. Lipid nanoparticles (LNP) were prepared at a total lipid to mRNA weight ratio of approximately 10:1 to 30:1. Briefly, the mRNA was diluted to 0.2 mg/mL in 10 to 50 mM citrate buffer, pH 4. Syringe pumps were used to mix the ethanolic lipid solution with the mRNA aqueous solution at a ratio of about 1:5 to 1:3 (vol/vol) with total flow rates above 15 mL/min. The ethanol was then removed and the external buffer replaced with PBS by dialysis. Finally, the lipid nanoparticles were filtered through a 0.2 μm pore sterile filter.
Studies were performed in 6-8 week old female C57BL/6 mice (Charles River) 8-10 week old CD-1 (Harlan) mice (Charles River) according to guidelines established by an institutional animal care committee (ACC) and the Canadian Council on Animal Care (CCAC). Varying doses of mRNA-lipid nanoparticle were systemically administered by tail vein injection and animals euthanized at a specific time point (e.g., 4 hours) post-administration. Liver and spleen were collected in pre-weighed tubes, weights determined, immediately snap frozen in liquid nitrogen and stored at −80° C. until processing for analysis.
For liver, approximately 50 mg was dissected for analyses in a 2 mL FastPrep tubes (MP Biomedicals, Solon OH). ¼″ ceramic sphere (MP Biomedicals) was added to each tube and 500 μL of Glo Lysis Buffer—GLB (Promega, Madison Wis.) equilibrated to room temperature was added to liver tissue. Liver tissues were homogenized with the FastPrep24 instrument (MP Biomedicals) at 2×6.0 m/s for 15 seconds. Homogenate was incubated at room temperature for 5 minutes prior to a 1:4 dilution in GLB and assessed using SteadyGlo Luciferase assay system (Promega). Specifically, 50 μL of diluted tissue homogenate was reacted with 50 μL of SteadyGlo substrate, shaken for 10 seconds followed by 5 minute incubation and then quantitated using a CentroXS^3 LB 960 luminometer (Berthold Technologies, Germany). The amount of protein assayed was determined by using the BCA protein assay kit (Pierce, Rockford, Ill.). Relative luminescence units (RLU) were then normalized to total μg protein assayed. To convert RLU to ng luciferase a standard curve was generated with QuantiLum Recombinant Luciferase (Promega).
The FLuc mRNA (L-6107or L-7602) from Trilink Biotechnologies will express a luciferase protein, originally isolated from the firefly, photinus pyralis. FLuc is commonly used in mammalian cell culture to measure both gene expression and cell viability. It emits bioluminescence in the presence of the substrate, luciferin. This capped and polyadenylated mRNA is fully substituted with 5-methylcytidine and pseudouridine.
Compounds of structure (I) were formulated using the following molar ratio: 47.5% cationic lipid/ 10% distearoylphosphatidylcholine (DSPC)/40.8% Cholesterol/1.7% PEG lipid (“PEG-DMA” 2-[2-(ω-methoxy(polyethyleneglycol2000)ethoxy]-N,N-ditetradecylacetamide). Relative activity was determined by measuring luciferase expression in the liver 4 hours following administration via tail vein injection as described in Example 1.
The cationic lipids shown in Table 2 have previously been tested with nucleic acids. For comparative purposes, these lipids were also used to formulate lipid nanoparticles containing the FLue mRNA (L-6107) using an in line mixing method, as described in Example 1 and in PCT/US10/22614, which is hereby incorporated by reference in its entirety. Lipid nanoparticles may be formulated using the following molar ratio: 50% Cationic lipid/10% distearoylphosphatidylcholine (DSPC)/38.5% Cholesterol/1.5% PEG lipid (“PEG-DMG”, i.e., 1-(monomethoxy-polyethyleneglycol)-2,3-dimyristoylglycerol, with an average PEG molecular weight of 2000). In alternate embodiments, cationic lipid, DSPC, cholesterol and PEG-lipid are formulated at a molar ratio of approximately 47.5:10:40.8:1.7. […]

Structure (SMILES) | pKa [1] | Liver Luc (ng luc/g liver), *dosed at 0.3 mg/kg [2] | Liver Luc @ 0.5 mg/kg (ng luc/g liver) [2]
CCCCCCCCC(CCCCCC)COC(=O)CCCCCCCN(CCCCCCCC(=O)OCC(CCCCCC)CCCCCCCC)CCN(CCO)CCCO (centres unmarked) [Compound 3] | 7.18 |  | 
CCCCCCCCC(CCCCCC)COC(=O)CCCCCN(CCCCCC(=O)OCC(CCCCCC)CCCCCCCC)CCN(C)CCO (centres unmarked) [Compound 4] | 6.91 | 50 ± 14* ng luc/g liver | 
CCCCCCCCC(CCCCCC)COC(=O)CCCCCN(CCCCCC(=O)OCC(CCCCCC)CCCCCCCC)CCN(C)CCCCCCCCCO (centres unmarked) [Compound 5] | 6.17 |  | 1597 ± 456 ng luc/g liver
CCCCCCC(CCCC)C(=O)OCCCCCCCCCN(CCCCCCCCCOC(=O)C(CCCC)CCCCCC)CCN(C)CCCCCCCCCO (centres unmarked) [Compound 8] | 6.08 |  | 54 ± 10 ng luc/g liver
CCCCCCCCCN(CCCO)CCN(CCCCCC(=O)OCC(CCCCCC)CCCCCCCC)CCCCCC(=O)OCC(CCCCCC)CCCCCCCC (centres unmarked) [Compound 2] | 5.76 | 553 ± 291* ng luc/g liver | 
CCCCCCCCC(CCCCCC)COC(=O)CCCCCN(CCCCCC(=O)OCC(CCCCCC)CCCCCCCC)CCN(C)CCCCCCO (centres unmarked) [Compound 7] | 6.69 |  | 16 ± 14 ng luc/g liver
CCCCCCCCC(CCCCCC)COC(=O)CCCCCCCN(CCCCCCCC(=O)OCC(CCCCCC)CCCCCCCC)CCN(CC)CCCO (centres unmarked) [Compound 6] | 6.82 |  | 
CCCCCCCCCN(CCO)CCN(CCCCCC(=O)OCC(CCCCCC)CCCCCCCC)CCCCCC(=O)OCC(CCCCCC)CCCCCCCC (centres unmarked) [Compound 1] | 5.83 | 330 ± 70* ng luc/g liver | 
